Values after ≈ are worked out from the molar mass of the structure shown.
How the values were obtained:
HuH7 = HuH7 hepatocellular carcinoma cell line; cited from earlier work
[1] = 30 mg once a day in oral administration, acute leukemia; cited from earlier work
PLC = PLC hepatocellular carcinoma cell line; cited from earlier work
HepG2 cells [2] = assay: Apoptosis assay, Annexin V-FITC/PI flow cytometry; type: cell-based; settings: 100 μg/ml
Method: The cell apoptosis assay was performed by flow cytometry using an Annexin V-FITC Apoptosis Detection Kit (BioVision, Mountain View, Calif.) according to the manufacturer's protocol. For flow cytometric analysis, HepG2 cells (5×10^5 cells) were trypsinized, gently washed twice with PBS, and subsequently resuspended in 500 μL of 1× binding buffer. The cells were stained by adding 5 μL of Annexin V-FITC and propidium iodide (PI) in the dark at room temperature for 5 minutes. The green fluorescence of FITC-bound Annexin V and the red fluorescence of DNA-bound PI were measured using a Canto II flow cytometer (BD Biosciences).

HepG2 cells [3] = assay: Intracellular reactive oxygen species (ROS) levels, CellROX flow cytometry; type: cell-based; settings: 100 μg/ml, 6 hours
Method: CellROX Deep Red Reagent was purchased from Invitrogen (Carlsbad, Calif.), and intracellular ROS levels were measured. […] The treated cells were cultured at 37° C. for 6 hours, and the cell concentration of the sample was adjusted to 5×10^3 cells/ml. Then, the cells were cultured with a CellROX Deep Red Reagent (1 mM, Invitrogen) at 37° C. for 30 minutes while protected from light. Furthermore, the cells were stained with SYTOX Blue Dead Cell Stain (5 mM, Invitrogen), and counted by flow cytometry after dead cell exclusion. Flow cytometric analysis was performed using a Canto II flow cytometer (BD Biosciences).

## CC(C)C[C@H](NC(=O)[C@@H](O)[C@H](N)Cc1ccccc1)C(=O)O [ubenimex, (2S)-2-[(2S,3R)-3-amino-2-hydroxy-4-phenylbutanoylamino]-4-methylpentanoic acid]
HuH7
  IC30: 394.8 µg/mL (≈ 1280 µM)
[1]
  maximum blood concentration: 2.21 µg/mL
PLC
  IC30: 498.8 µg/mL (≈ 1620 µM)
HepG2 cells [2]
  apoptosis: has an effect of inducing apoptosis
HepG2 cells [3]
  intracellular ROS levels: has an effect of enhancing intracellular ROS levels
